Data from PMC4406157, “Irreversible endo-Selective Diels–Alder Reactions of Substituted Alkoxyfurans: A General Synthesis of endo-Cantharimides” (Chemistry (Weinheim an Der Bergstrasse, Germany), 2015).

Key:
[1] = biological target: T1, Aryl Hydrocarbon Receptor (AhR) (Homo sapiens, UniProt P35869); test: Aryl Hydrocarbon Receptor (AhR) Human LS180 CYP1A1 FRET; type: cell-based; conditions: LS180 cells
T1 construct: LS180 CYP1A1 FRET; endogenous in cells; host or cells: LS180
T1 sequence (P35869 11-848): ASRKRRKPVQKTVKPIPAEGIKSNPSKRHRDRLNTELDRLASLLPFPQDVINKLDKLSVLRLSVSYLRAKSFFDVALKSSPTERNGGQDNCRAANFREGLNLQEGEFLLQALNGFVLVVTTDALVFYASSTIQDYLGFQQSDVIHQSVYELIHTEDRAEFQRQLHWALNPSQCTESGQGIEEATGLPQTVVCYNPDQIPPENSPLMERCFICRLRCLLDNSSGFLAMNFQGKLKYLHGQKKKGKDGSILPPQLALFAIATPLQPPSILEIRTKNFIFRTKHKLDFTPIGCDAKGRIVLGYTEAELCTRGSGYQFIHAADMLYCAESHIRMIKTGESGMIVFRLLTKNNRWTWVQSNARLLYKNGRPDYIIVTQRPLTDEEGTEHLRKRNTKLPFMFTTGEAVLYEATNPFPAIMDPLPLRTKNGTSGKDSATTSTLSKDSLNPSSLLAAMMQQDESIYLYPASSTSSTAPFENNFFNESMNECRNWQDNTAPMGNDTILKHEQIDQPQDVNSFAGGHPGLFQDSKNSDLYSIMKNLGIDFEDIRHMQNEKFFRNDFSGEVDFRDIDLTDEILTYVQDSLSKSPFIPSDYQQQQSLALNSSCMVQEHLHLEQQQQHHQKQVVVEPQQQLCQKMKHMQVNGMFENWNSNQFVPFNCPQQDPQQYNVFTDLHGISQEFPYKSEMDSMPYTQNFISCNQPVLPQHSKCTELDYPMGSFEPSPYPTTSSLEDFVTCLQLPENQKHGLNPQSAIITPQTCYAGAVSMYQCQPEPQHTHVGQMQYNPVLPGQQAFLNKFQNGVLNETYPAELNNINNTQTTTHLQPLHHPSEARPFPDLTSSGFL
Text: An important challenge for drug development is the generation of novel heterocyclic building blocks with suitable properties for use in screening and medicinal chemistry programs.[34] The cantharimides accessed using this methodology have appropriate physicochemical properties for lead-like compounds, including lipophilicity,[35] molecular weight and polar surface area[36] (Figure 3). Another attractive feature of these scaffolds is the high proportion of sp^3-hybridized carbon atoms, which is typically associated with improved protein binding selectivity and frequency, better solubility and a reduced chance of off-target effects.[37] Indeed, cantharimides 7, 10, endo-3 f and exo-3 f were screened against the hERG receptor (IC50>50 μM) and the aryl hydrocarbon receptor (EC50>100 μM), which are responsible for common off target effects, and no affinity was observed. […]
endo-3f Aryl Hydrocarbon Receptor (AhR) Human LS180 CYP1A1 FRET - EC50 >100
exo-3f Aryl Hydrocarbon Receptor (AhR) Human LS180 CYP1A1 FRET - EC50 >100
7 Aryl Hydrocarbon Receptor (AhR) Human LS180 CYP1A1 FRET - EC50 >100
10 Aryl Hydrocarbon Receptor (AhR) Human LS180 CYP1A1 FRET - EC50 >100
(§1) (1 picture or pasted object on this page, not shown here)

[2] = biological target: KCNH2 (human Ether-à-go-go-Related Gene) (Homo sapiens, UniProt Q12809); test: KCNH2 (hERG) Human Antagonist Barracuda Electrophysiology Population Patch Clamp; type: cell-based; conditions: read-out: IC50 hERG receptor (KCNH2 antagonist)
Text: (§2) An important challenge for drug development is the generation of novel heterocyclic building blocks with suitable properties for use in screening and medicinal chemistry programs.[34] The cantharimides accessed using this methodology have appropriate physicochemical properties for lead-like compounds, including lipophilicity,[35] molecular weight and polar surface area[36] (Figure 3). Another attractive feature of these scaffolds is the high proportion of sp^3-hybridized carbon atoms, which is typically associated with improved protein binding selectivity and frequency, better solubility and a reduced chance of off-target effects.[37] Indeed, cantharimides 7, 10, endo-3 f and exo-3 f were screened against the hERG receptor (IC50>50 μM) and the aryl hydrocarbon receptor (EC50>100 μM), which are responsible for common off target effects, and no affinity was observed.
Compound Assay Parameter Value/µM
endo-3f KCNH2 (human Ether -à-go-go-Related Gene) Human Antagonist IC50 >50 […]
as §1

[3] = in vitro clearance in the presence of human microsomes; type: in vitro ADME; conditions: IVC testing performed by Cyprotex
Text: as §2
[38] IVC testing performed by Cyprotex, 15 Beech Lane, Macclesfield, Cheshire, SK10 2DR, UK

KCNH2 (human Ether-à-go-go-Related Gene), sequence (Q12809 whole entry): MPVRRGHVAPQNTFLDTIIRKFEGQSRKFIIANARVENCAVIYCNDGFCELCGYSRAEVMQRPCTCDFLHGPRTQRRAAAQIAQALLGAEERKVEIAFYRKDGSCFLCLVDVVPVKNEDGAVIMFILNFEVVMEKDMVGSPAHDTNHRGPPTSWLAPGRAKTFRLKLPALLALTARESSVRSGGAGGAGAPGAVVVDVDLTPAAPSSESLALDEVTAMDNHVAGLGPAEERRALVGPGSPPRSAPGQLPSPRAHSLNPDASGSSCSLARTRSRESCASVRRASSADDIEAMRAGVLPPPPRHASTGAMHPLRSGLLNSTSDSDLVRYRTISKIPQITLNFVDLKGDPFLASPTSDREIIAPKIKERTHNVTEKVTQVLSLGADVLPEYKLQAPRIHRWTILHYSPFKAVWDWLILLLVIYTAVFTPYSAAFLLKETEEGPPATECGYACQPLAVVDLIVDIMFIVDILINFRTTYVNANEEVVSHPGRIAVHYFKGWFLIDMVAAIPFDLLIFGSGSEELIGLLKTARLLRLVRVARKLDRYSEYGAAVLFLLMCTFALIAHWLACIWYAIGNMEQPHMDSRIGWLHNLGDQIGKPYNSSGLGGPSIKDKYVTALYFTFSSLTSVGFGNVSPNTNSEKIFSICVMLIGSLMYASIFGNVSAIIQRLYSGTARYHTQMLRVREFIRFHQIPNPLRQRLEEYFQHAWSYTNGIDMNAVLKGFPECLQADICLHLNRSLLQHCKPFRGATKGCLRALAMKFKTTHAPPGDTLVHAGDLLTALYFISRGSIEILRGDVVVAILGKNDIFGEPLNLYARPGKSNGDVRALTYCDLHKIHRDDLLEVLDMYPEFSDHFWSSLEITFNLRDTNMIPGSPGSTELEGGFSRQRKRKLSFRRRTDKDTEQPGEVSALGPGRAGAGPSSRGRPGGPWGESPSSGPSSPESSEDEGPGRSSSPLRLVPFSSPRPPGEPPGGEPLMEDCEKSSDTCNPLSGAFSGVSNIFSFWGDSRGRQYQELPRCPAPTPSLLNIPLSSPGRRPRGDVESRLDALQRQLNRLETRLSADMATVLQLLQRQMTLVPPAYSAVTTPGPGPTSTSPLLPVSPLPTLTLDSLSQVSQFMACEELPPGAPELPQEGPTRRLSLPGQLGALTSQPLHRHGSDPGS

| SMILES | EC50 [1] | IC50 [2] | in vitro clearance [3] |
| --- | --- | --- | --- |
| CCOC1CC2OC1(c1ccccc1)C1C(=O)N(C)C(=O)C21 (stereo not drawn) [compound 7] | > 100 µM | > 50 µM |  |
| CN1C(=O)C2C3CC(O)C(c4ccccc4)(O3)C2C1=O (stereo not drawn) [compound 10] | > 100 µM | > 50 µM | < 0.53 mL/min/g |
| CCOC1=CC2OC1(c1ccccc1)C1C(=O)N(C)C(=O)C21 (stereo not drawn) [endo-3 f] | > 100 µM | > 50 µM |  |
| CCOC1=C[C@H]2O[C@]1(c1ccccc1)[C@@H]1C(=O)N(C)C(=O)[C@@H]12 [exo-3 f] | > 100 µM | > 50 µM |  |
